In patent US20020040018A1, “Subtype selective melatonergics” (priority 2000, published 2002):
Like-named read-outs stand apart in the source and are kept apart here.

What was measured:
in vivo = settings: Frings, mouse
Protocol: (§1) All compounds were administered i.p. Varying doses of the compounds were tested. […] For this procedure, mice were tested for their ability to maintain balance on a rotating (6 rpm) knurled Plexiglas rod (1 inch diameter) for one minute. Mice unable to maintain balance in three successive trials during the test period were considered toxic. […] For these studies, the dose of each test substance was varied between the limits of 0 and 100% protection and toxicity. The protective index (PI) is TD50/ED50.

[1] = system: Frings audiogenic seizure susceptible mice; experiment: Audiogenic seizure susceptibility of Frings mice; type: in vivo; settings: for P.I.: Table 6, TD50/ED50
Protocol: All compounds were administered i.p. Varying doses of the compounds were tested. At the predetermined time of peak anticonvulsant effect, individual mice were placed into a round Plexiglas chamber (diameter, 15 cm; height, 18 cm) pitted with an audio transducer (Model A5-ZC; FET Research & Development, Salt Lake City, Utah) and exposed to a high intensity sound stimulus (110 decibels, 11 KHz) for 25 seconds. Animals not displaying tonic forelimb or hindlimb extension were considered protected. The effect of the test compounds on motor performance was assessed by the rotorod test (Dunham and Miya, 1957). For this procedure, mice were tested for their ability to maintain balance on a rotating (6 rpm) knurled Plexiglas rod (1 inch diameter) for one minute. Mice unable to maintain balance in three successive trials during the test period were considered toxic. The median effective dose (ED50) and the median toxic dose (TD50) was calculated by probit analysis (Finney, 1971). For these studies, the dose of each test substance was varied between the limits of 0 and 100% protection and toxicity. The protective index (PI) is TD50/ED50.

[2] = system: Frings audiogenic seizure-susceptible mice; experiment: Rotorod test of motor performance (toxicity) in Frings mice; settings: Table 6, i.p., rotorod
Protocol: as §1

[3] = Sugden's study; cited from earlier work
rodents = settings: 25 μg chronically for 13 weeks; cited from earlier work
rat = settings: cited from earlier work
[4] = system: children with sleep disturbances; settings: single dose of 5-10 mg; cited from earlier work
[5] = Sugden's study; cited from earlier work; remark: listed apart in the source
[6] = Formalin model of persistent pain (Example 11); type: in vivo
Protocol: In this model, two distinct phases of nociceptive activity (paw licking) are observed. […] The second phase is caused by the release of inflammatory factors from tissue damage caused by formalin injection. This phase lasts for 30 to 40 minutes, and is a model of persistent inflammatory pain. The second phase is also predictive of analgesic drugs that will show efficacy in models of chronic and neurophathic pain. [drawing 2]

MT2 receptor subtype = molecular target: T1, MT2 receptor subtype (Homo sapiens, UniProt P49286); settings: radioligand binding, clones in NIH-3T3 cells; cited from earlier work
T1 construct: host or cells: NIH-3T3 cells
T1 sequence (P49286 1-362): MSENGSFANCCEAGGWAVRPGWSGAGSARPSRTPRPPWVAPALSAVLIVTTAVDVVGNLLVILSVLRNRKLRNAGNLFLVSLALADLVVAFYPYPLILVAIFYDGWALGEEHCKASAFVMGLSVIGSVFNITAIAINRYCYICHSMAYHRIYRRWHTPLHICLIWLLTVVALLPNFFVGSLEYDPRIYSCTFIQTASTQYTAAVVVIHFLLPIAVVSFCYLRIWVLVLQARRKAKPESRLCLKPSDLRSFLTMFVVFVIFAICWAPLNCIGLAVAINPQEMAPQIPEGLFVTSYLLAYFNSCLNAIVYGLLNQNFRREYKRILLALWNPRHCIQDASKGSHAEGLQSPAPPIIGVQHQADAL

mice = experiment: Elevated platform test for phencyclidine-like behavioral effects; type: in vivo; settings: 44.5 nmol dose, control
Protocol: The in vivo phencyclidine-like behavioral effects of CGX-031-120 is assessed by the elevated platform test as described by Evoniuk et al. (1991). The platform test is a rapid method for evaluating the behavioral effects of phencyclidine-like dissociative anesthetics in mice. […] Alternatively, as a control, a 44.5 nmol dose of MK 801 (dizocilpine) elicited 87.5% drug-induced falls from the elevated platform.

[7] = Table 6, i.p., time of peak effect
[8] = Mus musculus, ip, Table 6, i.p., time of peak effect, read-out: ED50

For `CCC1(C)CC(=O)NC1=O` (stereo not shown) [Zarontin ®, reference compound], the TD50 (in vivo; ip) was 340 mg/kg and the P.I. [1] was 1.04.
For `O=C1CN=C(c2ccccc2Cl)c2cc([N+](=O)[O-])ccc2N1` [Klonipin ®, reference compound], the “TD50” value [2] was 0.26 mg/kg, the P.I. [1] was 2.6 and the “ED50” value [1, 7] was 0.10 mg/kg.
For `NC(=O)N1c2ccccc2C=Cc2ccccc21` [Tegratol ®, reference compound], the “TD50” value [2] was 45.4 mg/kg, the P.I. [1] was 4.1 and the “ED50” value [1, 7] was 11.2 mg/kg.
`CCCC(CCC)C(=O)O` [Depakote ®, reference compound] gave an ED50 [1, 8] of 155 mg/kg and a P.I. [1] of 2.6.
In the case of `COc1ccc2[nH]cc(CCNC(C)=O)c2c1` [Melatonin, N-acetyl-5-methoxytryptamine], the TD50 (in vivo; intraperitoneal) is listed as 363 mg/kg, the TD50 (in vivo; ip) is listed as 342 mg/kg and the “ED50 v 3-MPA” value [3] is listed as 115 mg/kg. For the same compound, the “number and severity of seizures induced by PTZ” value (rodents) was “reduced the number and severity of seizures”, the anti-nociceptive effect (rat; ip 30, 60, 120 mg/kg) was “dose-dependent anti-nociceptive effect” and the “frequency of epileptic attacks” value [4] was “positive effect”. For the same compound, the “ED50 v ECS” value [5] was 159 mg/kg, the ED50 ([1]; Mus musculus, ip) was 82 mg/kg and the ED50 ([1]; audiogenic mouse model, read-out: ED50) was 83 mg/kg. For the same compound, the “licking time following formalin injection” value ([6]; both phases, 5 doses) was “dose-dependently reduced the licking time”, the “dose at which reduction of licking time reaches significance” value ([6]; phase one) was no less than 100 mg/kg and the “dose at which reduction of licking time reaches significance” value ([6]; phase two) was no less than 200 mg/kg.
For `CCCC(=O)NCCc1c2n(c3ccc(OC)cc13)Cc1ccccc1-2` [IIK7, N-butanoyl-2-(2-methoxy-6H-isoindolo-[2,1a]-indol-11-yl)-ethanamine], the “selectivity for the MT2 receptor subtype” value (MT2 receptor subtype) is listed as 140 fold.
For `C[C@]12N[C@H](Cc3ccccc31)c1ccccc12` [MK 801, reference compound], the “drug-induced falls from the elevated platform” value (mice) was 87.5%.
For `CC(=O)NCCc1c(Cc2ccccc2)[nH]c2ccccc12` [Luzindole], the “antagonism of melatonin induced anti-nociception” value (rat; i.c.v. (Luzindole 50 & 100 μg)) is listed as “antagonized”.
`O=C1NC(=O)C(c2ccccc2)(c2ccccc2)N1` [Dilantin ®, reference compound] gave a TD50 (in vivo; ip) of 41 mg/kg, an ED50 [1, 8] of 3.9 mg/kg and a P.I. [1] of 10.5.
`NC(=O)OCC(COC(N)=O)c1ccccc1` [Felbatol ®, reference compound] gave a TD50 (in vivo; ip) of 220 mg/kg, an ED50 [1, 8] of 10 mg/kg and a P.I. [1] of 22.
